Experimental data: patent US10011818B2, “Method for in vitro oocyte maturation” (CHINA AGRICULTURE UNIVERSITY, priority 2012, dated 2018)
Like-named read-outs stand apart in the source and are kept apart here.

Legend:
[1] = tested on: oocyte nuclear maturation; details: cited from earlier work
[2] = tested on: oocyte meiotic arrest; details: mice, Zhang et al., 2010; cited from earlier work
[3] = tested on: oocyte maturation and embryonic development; details: CNP pretreatment 100 nM alone, without extended IVM; cited from earlier work
[4] = tested on: bovine oocytes; experiment: Effect of CNP pre-IVM and extended IVM on developmental rate of bovine oocytes after IVF (cleavage, blastocyst); type: cell-based; details: for No. of cleavage / cleavage (%) / No. of blastocysts / blastocysts (%): CNP 200 nM pre-IVM 6 h; for No. of cleavage: day 2; for cleavage (%): day 2, mean ± SEM; for No. of blastocysts: day 7; for blastocysts (%): day 7, mean ± SEM
Procedure: (§1) Bovine ovaries were obtained from a local slaughterhouse, transported at 30-35° C. to the laboratory within 1 hour, and washed in warmed normal saline containing 2% Penicillin G-Streptomycin. Ovarian antral follicles (3-8 mm) were aspirated using an 18-gauge needle. cumulus-oocyte complexes (COCs) with homogenous oocyte cytoplasm and complete, compacted, and multilayered CCs (Grade-1) or complete but fewer than three layers of CCs (Grade-2), were collected using micropipettes.
(§2) Grade-1 and -2 COCs were washed in the washing buffer (HEPES-TCM199) for three times, and then washed in pre-IVM medium (TCM199 containing 3 mg/ml BSA and CNP at different concentrations (50, 100, 200 and 400 nM) for two times. After that, COCs were transfer into pre-IVM medium (pre-warmed for 2 hours) in 4-well plate (500 μl pre-IVM medium and 50 COCs in each well) and cultured for 6 hours at 38.5° C., in humidified air with 5% CO2. After pre-IVM phase, a proportion of COCs are digested with hyaluronidase to remove cumulus cells. To determine the most preferable concentration of CNP for pre-VIM, meiosis kinetics of oocytes was evaluated according to nuclear morphology using DAPI staining under a fluorescence microscope. The oocytes without pre-IVM phase are used as control.
After cultured in pre-IVM medium containing 200 nM CNP, COCs are further cultured in extended-IVM medium (TCM199 supplemented with 10 μg/ml FSH, […], 1 μg/ml E2, 10 ng/ml EGF, 10% FBS) at 38.5° C., in humidified air with 5% CO2. To determine the most preferable duration for extended-IVM, COCs were cultured for 24, 26 or 28 hours. In addition, COCs without pre-IVM phase, are also cultured in […] for 24, 26 or 28 hours as controls.
After maturation, the COCs were fertilized in BO medium for 8 hours at 39° C. under 5% CO2 in a humidified atmosphere. After fertilization, the presumptive zygotes were transferred to 100 μl CR1 culture medium droplets (15 zygotes in each droplets) at 39° C. in a humidified atmosphere. The culture medium was changed every 2 days during the culture period. The percentage cleavage and rates of subsequent embryo development to the blastocyst stage were recorded on day 2 and 7, respectively.

[5] = tested on: bovine oocytes and subsequent preimplantation embryos
[6] = tested on: bovine oocytes; experiment: Effect of CNP pretreatment (pre-IVM) on meiotic resumption of bovine oocytes, nuclear morphology by DAPI staining; type: cell-based; details: for No. of GV oocytes / No. of GVBD oocytes / GV oocytes (%) / GVBD oocytes (%): pre-IVM 6 hours; for GV oocytes (%) / GVBD oocytes (%): mean ± SEM
Procedure: as §1, §2

[7] = literature, chemical meiotic inhibitors

Compound: C[C@@H]1C[C@@H]([C@H](O)CC2CC(=O)NC(=O)C2)C(=O)[C@@H](C)C1 [cycloheximide]
- inhibitory effect on nuclear maturation [1, 7]: evident inhibitory effect

Compound: C-type natriuretic peptide [CNP]
- preferable concentration of CNP for meiotic inhibition [2]: 100 nM
- oocyte maturation and embryonic development result [3]: could not lead to an evidently satisfying results
- No. of cleavage ([4]; extended-IVM 24 h, after IVF): 157
- cleavage (%) ([4]; extended-IVM 24 h, after IVF): 81.3 ± 2.7%
- No. of blastocysts ([4]; extended-IVM 24 h, after IVF): 53
- blastocysts (%) ([4]; extended-IVM 24 h, after IVF): 27.5 ± 1.3%
- No. of cleavage ([4]; extended-IVM 26 h, after IVF): 89
- cleavage (%) ([4]; extended-IVM 26 h, after IVF): 87.1 ± 0.75%
- No. of blastocysts ([4]; extended-IVM 26 h, after IVF): 62
- blastocysts (%) ([4]; extended-IVM 26 h, after IVF): 28.6 ± 0.7%
- No. of cleavage ([4]; extended-IVM 28 h, after IVF): 186
- cleavage (%) ([4]; extended-IVM 28 h, after IVF): 88.3 ± 3.0%
- No. of blastocysts ([4]; extended-IVM 28 h, after IVF): 80
- blastocysts (%) ([4]; extended-IVM 28 h, after IVF): 37.4 ± 2.5%
- blastocyst rates ([4]; CNP pre-IVM plus extended IVM (novel method)): significantly enhances blastocyst rates
- cleavage rates versus counterparts without CNP pre-IVM ([4]; CNP pre-treatment followed by extended IVM phase, after IVF): significantly higher
- adverse effect on bovine oocytes and subsequent preimplantation embryos [5]: doesn't show any evident adverse effect
- No. of GV oocytes ([6]; CNP 50 nM): 64
- No. of GVBD oocytes ([6]; CNP 50 nM): 37
- GV oocytes (%) ([6]; CNP 50 nM): 63.4 ± 3.1%
- GVBD oocytes (%) ([6]; CNP 50 nM): 21.3 ± 3.1%
- No. of GV oocytes ([6]; CNP 100 nM): 68
- No. of GVBD oocytes ([6]; CNP 100 nM): 30
- GV oocytes (%) ([6]; CNP 100 nM): 69.4 ± 2.6%
- GVBD oocytes (%) ([6]; CNP 100 nM): 30.6 ± 2.6%
- rate of oocytes maintaining at GV stage versus control ([6]; CNP 200 nM, P<0.01): significant higher
- No. of GV oocytes ([6]; CNP 200 nM): 79
- No. of GVBD oocytes ([6]; CNP 200 nM): 18
- GV oocytes (%) ([6]; CNP 200 nM): 81.4 ± 2.1%
- GVBD oocytes (%) ([6]; CNP 200 nM): 19.6 ± 2.1%
- No. of GV oocytes ([6]; CNP 400 nM): 79
- No. of GVBD oocytes ([6]; CNP 400 nM): 27
- GV oocytes (%) ([6]; CNP 400 nM): 74.5 ± 2.8%
- GVBD oocytes (%) ([6]; CNP 400 nM): 25.5 ± 2.8%
- inhibitory effect on meiotic resumption outside the range ([6]; concentration higher than 400 nM or lower than 100 nM): no evident inhibitory effect
- concentration of maximal inhibitory effect on meiotic resumption ([6]; dose-dependent pattern, bovine oocytes): 200 nM
- concentration range with significant inhibition of oocyte meiotic resumption ([6]; pre-IVM pretreatment, bovine oocytes): 100 to 400 nM

Compound: CN(C)c1ncnc2nc[nH]c12 [6-DMAP]
- inhibitory effect on nuclear maturation [1, 7]: evident inhibitory effect

Compound: O=C1CCCO1 [butyrolactone]
- inhibitory effect on nuclear maturation [1, 7]: evident inhibitory effect

Compound: CC[C@H](CO)Nc1nc(NCc2ccccc2)c2ncn(C(C)C)c2n1 [roscovitine]
- inhibitory effect on nuclear maturation [1]: evident inhibitory effect
